Key:
[1] = biological target: T1, PAH103-428 (catalytic domain) (Homo sapiens, UniProt P00439); experiment: ANS-monitored thermal unfolding of PAH103-428; format: binding; settings: for ΔT0.5 PAH103-428 / T0.5 PAH103-428: 100 μM compound; for ΔT0.5 PAH103-428: vs no ligand; for T0.5 PAH103-428: mean ± SD; for stabilization of PAH103-428: 100 μM ligand
T1 construct: made in house; host or cells: E. coli
T1 sequence (P00439 103-428): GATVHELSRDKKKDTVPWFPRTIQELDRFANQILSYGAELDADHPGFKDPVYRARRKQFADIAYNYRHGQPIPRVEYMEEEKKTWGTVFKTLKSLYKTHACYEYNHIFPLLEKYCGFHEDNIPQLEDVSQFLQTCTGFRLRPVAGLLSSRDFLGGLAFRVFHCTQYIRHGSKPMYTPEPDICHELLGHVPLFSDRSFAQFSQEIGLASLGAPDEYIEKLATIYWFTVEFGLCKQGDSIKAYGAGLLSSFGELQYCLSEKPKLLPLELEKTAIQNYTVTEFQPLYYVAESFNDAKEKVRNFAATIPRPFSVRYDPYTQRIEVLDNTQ
Protocol: (§1) HTS for ligand-induced PAH stabilization was performed by monitoring the thermal denaturation of recombinant pure PAH protein in the presence of the extrinsic fluorescent probe 8-anilino 1-naphtalene sulfonic acid (ANS; Aldrich). HTS experiments were performed in a FluoDia T70 High Temperature Fluorescence Microplate Reader (Photon Technology International). Protein-ligand solutions (200 uL) were dispensed into 96-well microplates (ThermoFast®96 Skirted from Abgene) and overlayed with mineral oil. Protein solutions contained 0.1 mg/ml PAH (2 μM in PAH subunit) in 20 mM Hepes 200 mM NaCl pH 7.0 and 100 μM ANS. Ligands were added in DMSO, at 100 μM and 2.5% final concentration, respectively. Control experiments in the absence of DMSO and/or ligands were routinely performed in each microplate. Ligands (from MayBridge HitFinder™ Collection Database) were manually added to the microplates containing the protein solutions and incubated at 25° C. for 30 min before loading them onto the microplate reader. Thermal denaturation was monitored by following the increase in ANS fluorescence intensity due to protein unfolding λexc=395 and λern=500 nm; filters (Matulis D, et. Al., Biochemistry 2005, 44(13):5258-66). Fluorescence was registered in the 25-75° C. range, at a 1° C./min scan rate and allowing the system to equilibrate at each temperature for 1 min before fluorescence acquisition The experiments were real-time monitored using the software provided by the manufacturer. After smoothing and normalization of the experimental data, ligand induced stabilization was screened by estimation of the T0.5 as midpoint temperature of the transition defined as the temperature where half of the unfolded fluorescence signal (fu) is experimentally observed, using a home-built software written in C++ and the following expression (equation 1): […]
(§2) Additional thermal denaturation experiments were performed on a Cary Eclipse fluorescence spectrophotometer equipped with a temperature controlled Peltier multicell holder (Varian). Samples containing PAH (2 μM subunit) in 20 mM NaHepes, 200 mM NaCl, pH 7.0, 100 μM ANS, 2.5% DMSO and 0-100 μM ligands were incubated at room temperature for 30 min to allow equilibration prior to measurements. Thermal denaturation was monitored by following changes in ANS fluorescence emission (excitation at 395 and emission at 500 nm; slits 10 nm) at a 1 K/min in a 20-80° C. range. Each run contained 4 different samples, including a control in the absence of ligand. Data analysis was performed by fitting of the experimental fluorescence to equation 1.
(§3) Similar ligand-induced stabilization experiments were performed using i) a double truncated form of PAH equivalent to the catalytic domain (PAH103-428) lacking both the regulatory N-terminal domain and the tetramerization motif and existing as a functional dimmer and ii) the R68S-PAH mutant, associated to mild PKU and one of the few PKU mutants that display enough stability to be purified as a stable tetramer.

R68S-PAH = biological target: T2, R68S-PAH (Homo sapiens, UniProt P00439, R68S); experiment: ANS-monitored thermal unfolding of R68S-PAH; format: binding; settings: for ΔT0.5 PAHR68S / T0.5 PAHR68S: 100 μM compound; for ΔT0.5 PAHR68S: vs no ligand; for T0.5 PAHR68S: mean ± SD; for stabilization of R68S-PAH: 100 μM ligand
T2 construct: made in house; host or cells: E. coli
T2 sequence (P00439 1-452 R68S): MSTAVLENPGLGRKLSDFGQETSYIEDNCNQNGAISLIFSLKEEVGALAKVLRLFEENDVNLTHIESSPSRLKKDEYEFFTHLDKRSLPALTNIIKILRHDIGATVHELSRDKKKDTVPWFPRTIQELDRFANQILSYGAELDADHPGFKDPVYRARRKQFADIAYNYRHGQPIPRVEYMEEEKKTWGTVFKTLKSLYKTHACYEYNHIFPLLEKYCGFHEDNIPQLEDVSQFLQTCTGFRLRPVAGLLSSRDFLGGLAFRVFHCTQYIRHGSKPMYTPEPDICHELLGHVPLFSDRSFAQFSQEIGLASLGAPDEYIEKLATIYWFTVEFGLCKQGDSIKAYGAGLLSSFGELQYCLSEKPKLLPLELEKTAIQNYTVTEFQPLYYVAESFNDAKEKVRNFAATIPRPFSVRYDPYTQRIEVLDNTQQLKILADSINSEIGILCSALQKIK
Protocol: as §1, §2, §3

ΔT0.5 PAH103-428 [1] [°C] | T0.5 PAH103-428 [1] [°C] | stabilization of PAH103-428 [1] | ΔT0.5 PAHR68S (R68S-PAH) [°C] | T0.5 PAHR68S (R68S-PAH) [°C] | stabilization of R68S-PAH (R68S-PAH) | SMILES
1.2 | 46.1 ± 0.7 | only a slight stabilized | 1.6 | 50.5 ± 0.5 | only a slight stabilized | Cc1ccnc(-n2c(=S)[nH]c3sc(C)c(C)c3c2=O)c1 [Compound 13, 5,6-dimethyl-3-(4-methyl-2-pyridinyl)-2-thioxo-2,3 dihydrothieno[2,3-d]pyrimidin-4(1H)-one]
10.1 | 55.0 ± 1.3 | significantly stabilized | 8.2 | 57.1 ± 0.3 | significantly stabilized | Nc1c(-c2ccc3ccccc3n2)c2ccc([N+](=O)[O-])cc2c(=O)n1Cc1ccccc1 [Compound 11, 3-amino-2-benzyl-7-nitro-4-(2-quinolyl)-1,2-dihydroisoquinolin-1-one]
4.3 | 49.2 ± 1.2 | – | 1.1 | 50.0 ± 1.4 | – | Cc1onc(-c2ccccc2)c1-c1n[nH]c(N)c1C#N [Compound 5, 5-amino-3-(5-methyl-3-phenyl-4-isoxazolyl)-1H-pyrazole-4-carbonitrile]
8.4 | 53.3 ± 1.5 | significantly stabilized | 3.2 | 52.1 ± 1.6 | significantly stabilized | Cn1cnc([N+](=O)[O-])c1N1CCN(C(c2ccccc2)c2ccccc2)CC1 [Compound 6, 1-benzhydryl-4-(1-methyl-4-nitro-1H-imidazol-5-yl)piperazine]

Reference: patent publication US8338423B2, “Compositions for the treatment of hyperphenylalaninemia” (Universidad de Zaragoza, priority 2007, dated 2012)
